Results from PMC12521541, “A novel D-peptide modulates DCLK1 gelsolin interactions, reducing PDAC tumor growth” (Scientific Reports, 2025).
“Also recorded” adds a separate entry of the source. Read-outs that look alike come from different tables or passages of the source. One block for each molecule: values may come before it. Non-standard residues stand in square brackets, D forms with d. Residues, ends and D or L forms follow the SMILES beside them.

Assays:
AsPC-1 cells = test: PDAC spheroid self-renewal assay, AsPC-1; format: cell-based; conditions: Matrigel 7 days or 0.3% agar 3 weeks
Method: (§1) AsPC-1 and CAPAN-1 cancer cells were treated with candidate D-peptides or vehicle control and suspended in growth factor-reduced Matrigel™ for 7 days or 0.3% agar for 3 weeks and monitored for spheroid growth. The size and number of spheroids were analyzed, counted, and then compared between the treatment groups[41],[42].

[1] = Assessment of DCLK1 D-peptide toxicity in mice; format: in vivo; conditions: athymic mice; escalating doses every three days, 750 µg increasing by 500 µg to 4000 µg/mouse; vs saline-treated controls
Method: Supplemental Figure 1. Assessment of DCLK1 D-peptide Toxicity in Mice. Mice received escalating doses of D-peptide 1 every three days, starting with 750 µg (equivalent to 210 nM in blood and extravascular fluid) and increasing by 500 µg per dose, reaching a maximum of 4000 µg/mouse. Monitored toxicity indicators included soft feces, urine stains, depression, rough coat, nasal/ocular discharge, hunching, and body weight changes. […] Major organs were collected, and serum was stored for further biochemical analysis.

AsPC-1 xenografts = test: AsPC-1 xenograft tumor growth; format: in vivo; conditions: for gross inspection of excised xenografts: AsPC-1 flank xenografts, excised after treatment until day 36
Method: Athymic nude (Foxn1^nu/Foxn1^nu) mice were purchased from the Jackson Laboratory (Bar Harbor, Maine) and housed in pathogen-free conditions. AsPC-1 cells (1 × 10^7) were injected subcutaneously into the flanks of 4- to 6-week-old mice (n = 3/group). Tumors were measured using a caliper and the volume was calculated as (length × width^2) × 0.5. Once tumors achieved an average size of ~ 100 mm^3 mice were injected via intraperitoneal injection (10 mg/kg, […]) with selected D-peptides. Treatments were continued every three days until day 36. Xenografts were then excised and evaluated by gross inspection.

DCLK1 isoform 1 = test: Crossreactivity with DCLK1 isoform 1; format: binding, human
[2] = test system: Capan-1 pancreatic cancer cells; test: Colony formation assay (clonogenicity), Capan-1; format: cell-based; conditions: blinded study
Capan-1 cells = test: PDAC spheroid self-renewal assay, Capan-1; format: cell-based; conditions: Matrigel 7 days or 0.3% agar 3 weeks
Method: as §1

[3] = test system: DCLK1 isoform 4 / mAb CBT-15; test: Competition assay: mAb CBT-15 binding to DCLK1 isoform 4; set-up: species or system human; conditions: mean ± SEM; *p < 0.01
[4] = test system: PDAC cells (AsPC-1 and CAPAN-1); test: Proliferation assay (MTT); format: cell-based; conditions: OD550, in vitro
Method: (§2) AsPC-1 and CAPAN-1 cells were grown as previously described with varying concentrations of candidate D-peptides[40]. Afterward, we treated cells with TACS MTT Reagent (RND Systems) at 37 C until a dark crystalline precipitate within the cells was observed. NH4OH in DMSO was added and incubated for 10 min while protected from light. We determined the OD550 and averaged it as a percentage of cell proliferation.

DCLK1 isoform 4 / FGF19 = test: ELISA binding of FGF19 to DCLK1 isoform 4; set-up: species or system human
Method: (§3) Polystyrene microtitre Immulon 2HB plate was coated with freshly prepared (400 ng/50 ml) DCLK1 isoform 4 ([…]) in 0.1 M NaHCO3, pH 8.6, overnight at 4 C. After blocking with 1% gelatin in TTBS at RT, different concentrations of gelsolin or FGF19 were added (2 mg/50ul/well, 1 mg/well, 0.5 mg/well, and 0.25 mg/well at […], proteins diluted in TTBS), and incubated at RT. To study the competitive ability of peptides, we used 20 mg/well of either D-peptide 1, D-peptide 3, D-peptide 5, or the C-terminal peptide antigen for the mAb CBT-15. After incubation at RT, plates were washed with TTBS, and bound gelsolin or FGF19 was detected. Bound plasma gelsolin (ab233671; Abcam, Waltham, MA) was immunodetected with anti-gelsolin Ab (ab11081; Abcam, Waltham, MA) or FGF19 (969-FG-025; Bio-Techne, Minneapolis, MN) immunodetected by anti-FGF19 (sc-390621; Santa Cruz Biotechnology, Dallas, TX). Detection was by alkaline phosphatase-conjugated goat anti-mouse IgG (ab97020; Abcam, Waltham, MA) followed by 1-STEP NBT/BCIP substrate (#34042; ThermoFisher Scientific, Waltham, MA) and quantified at 450 nm on a microplate reader.

[5] = test system: AsPC-1 pancreatic cancer cells; test: Colony formation assay (clonogenicity), AsPC-1; format: cell-based; conditions: blinded study
[6] = test system: PDAC cell lines AsPC-1 and Capan-1; test: Functional bioassays in PDAC cell lines (overall activity); format: cell-based; conditions: summary of bioassays in AsPC-1 and Capan-1
Method: as §2, §1

DCLK1 isoform 4 / pGSN = test: ELISA binding of plasma gelsolin (pGSN) to DCLK1 isoform 4; set-up: species or system human; conditions: for effect of peptide on pGSN binding to DCLK1 isoform 4: peptide 20 mg/well (so in the source), pGSN at 2 µg/ml
Method: as §3

DCLK1 isoform 4 = target: T1, DCLK1 isoform 4 (Homo sapiens, UniProt O15075); test: SPR analysis of DCLK1 isoform 4 with Gelsolin and FGF19; format: binding; conditions: for Kinetic 1:1 Ave Kd: kinetic 1:1, average (dissociation rate)
T1 sequence (O15075 687-740 limits assumed): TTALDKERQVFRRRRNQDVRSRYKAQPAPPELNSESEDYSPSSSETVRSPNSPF
Method: Purification of human DCLK1 isoform 4 was performed at the University of Oklahoma Protein Production and Characterization Core Facility (Norman, OK) using an E. coli strain BL21(DE3) pLPP containing the pET19-DCLK1 isoform 4 plasmid. For Bio-layer Interferometry (BLI) experiments, a C-terminal DCLK1 isoform 2/4 His-tagged protein was used (NovoPro, Shanghai, China). All His-tagged proteins were dialyzed using PBS/glycerol to remove imidazole.

plasma gelsolin = target: T2, plasma gelsolin (UniProt P06396 28-782); test: SPR; format and conditions not told in the text shown (Fig. 4F, G; Suppl. Table 1); conditions: both partners purified
T2 construct: plasma gelsolin (pGSN), bought protein; The source is told for the ELISA only; also called pGSN; source: bought: Abcam (ab233671)

[7] = kinetic 1:1, average, read-out: Kinetic 1:1 Ave KD

T2 sequence (P06396 28-782): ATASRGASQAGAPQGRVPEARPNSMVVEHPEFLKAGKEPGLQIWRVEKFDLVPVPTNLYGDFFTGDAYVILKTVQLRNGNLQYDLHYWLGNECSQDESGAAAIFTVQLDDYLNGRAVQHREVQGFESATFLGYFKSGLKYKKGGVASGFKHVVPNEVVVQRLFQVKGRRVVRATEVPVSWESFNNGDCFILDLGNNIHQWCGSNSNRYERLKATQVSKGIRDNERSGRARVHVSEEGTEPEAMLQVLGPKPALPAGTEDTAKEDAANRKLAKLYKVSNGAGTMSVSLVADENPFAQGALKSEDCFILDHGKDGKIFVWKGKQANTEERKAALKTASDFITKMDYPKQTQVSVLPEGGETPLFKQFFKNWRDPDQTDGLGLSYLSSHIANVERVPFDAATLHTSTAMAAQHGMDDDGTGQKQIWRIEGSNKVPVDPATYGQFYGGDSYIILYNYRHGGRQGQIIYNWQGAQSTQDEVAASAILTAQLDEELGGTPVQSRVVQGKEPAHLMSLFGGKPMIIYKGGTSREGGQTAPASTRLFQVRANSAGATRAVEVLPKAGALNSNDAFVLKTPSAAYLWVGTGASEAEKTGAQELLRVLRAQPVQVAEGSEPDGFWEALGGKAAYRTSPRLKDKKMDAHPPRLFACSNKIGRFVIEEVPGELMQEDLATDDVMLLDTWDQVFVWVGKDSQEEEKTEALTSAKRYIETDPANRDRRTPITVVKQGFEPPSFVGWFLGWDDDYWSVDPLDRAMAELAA

Kinetic 1:1 Ave Ka (DCLK1 isoform 4; kinetic 1:1, average): 5.09E+03 M^-1s^1 | Kinetic 1:1 Ave Kd (DCLK1 isoform 4): 9.13E-03 s^1 | Kd (DCLK1 isoform 4; [7]): 1790 nM | Kd (DCLK1 isoform 4; steady-state, average, read-out: Steady-state Affinity Ave KD): 970 nM
Molecule: FGF19: FGF19 (969-FG-025; Bio-Techne)
FGF19 binding to DCLK1 isoform 4 (DCLK1 isoform 4 / FGF19): bound to DCLK1 isoform 4 similarly to pGSN

Kinetic 1:1 Ave Ka (DCLK1 isoform 4; kinetic 1:1, average): 5.48E+03 M^-1s^1 | Kinetic 1:1 Ave Kd (DCLK1 isoform 4): 5.47E-04 s^1 | Kd (DCLK1 isoform 4; [7]): 99 nM | concentration of maximum pGSN binding to DCLK1 isoform 4 (DCLK1 isoform 4 / pGSN; DCLK1-coated plates, pGSN gradient, R^2 of 0.94): 2 µg/ml | pGSN binding to DCLK1 isoform 4 (DCLK1 isoform 4 / pGSN; pGSN gradient): consistent, linear binding
Molecule: Gelsolin

Further lines, the molecule ahead of its results:

Molecule: NCC(=O)N[C@H](Cc1c[nH]c2ccccc12)C(=O)N[C@H](Cc1ccc(O)cc1)C(=O)NCC(=O)N[C@H](Cc1c[nH]c2ccccc12)C(=O)NCC(=O)N[C@H](CC(=O)O)C(=O)N[C@H](CC(=O)O)C(=O)O [D-peptide 1] (H-G[dW][dY]G[dW]G[dD][dD]-OH; N-terminus and C-terminus assumed)
spheroid formation / self-renewal capacity (AsPC-1 cells): markedly impaired self-renewal capacity | toxicity [1]: no adverse effects compared to saline-treated controls; also recorded: no apparent toxicity | gross inspection of excised xenografts (AsPC-1 xenografts): no visible necrosis or hemorrhage was observed | gross inspection of excised xenografts (AsPC-1 xenografts; listed as Dpeptide 1): no gross necrosis, hemorrhage, or cavitation | reduction of tumor volume compared to controls (AsPC-1 xenografts; AsPC-1 xenografts, athymic mice, 10 mg/kg intraperitoneal, until day 36, control peptide D-peptide 3): 60% | tumor size/growth compared to control (AsPC-1 xenografts; AsPC-1 xenografts, every three days for six doses, 36 days, control D-peptide 3 n = 8, D-peptide 1 n = 9, *p < 0.01): significantly reduced tumor size compared to control | general toxicity during xenograft treatment (AsPC-1 xenografts; flank xenograft model): without general toxicity in non–DCLK1–expressing tissues | crossreactivity with isoform 1 (DCLK1 isoform 1): minimal crossreactivity with isoform 1 | colony formation (clonogenicity) [2]: significantly reduced colony formation (clonogenicity) at low micromolar concentrations | spheroid formation / self-renewal capacity (Capan-1 cells): markedly impaired self-renewal capacity | competition with mAb CBT-15 for DCLK1 isoform 4 binding [3]: interacts at a site distinct from CBT-15’s binding site; also recorded: its epitope is distinct from that of mAb CBT-15 | PDAC cell proliferation [4]: modest in vitro proliferation decreases | effect of peptide on FGF19 binding to DCLK1 isoform 4 (DCLK1 isoform 4 / FGF19; peptide 20 mg/well (so in the source)): weak effect with FGF19-DCLK1 association | colony formation (clonogenicity) [5]: significantly reduced colony formation (clonogenicity) at low micromolar concentrations | potency/activity in the bioassays [6]: high potency in the bioassays | effect of peptide on pGSN binding to DCLK1 isoform 4 (DCLK1 isoform 4 / pGSN): did not block the PPI interaction but seemed to improve pGSN binding to DCLK1; also recorded: enhances pGSN binding | effect of peptide on pGSN binding to DCLK1 isoform 4 (DCLK1 isoform 4 / pGSN; listed as Dpeptide 1): binds a distinct site and allosterically enhances pGSN association

B1: human DCLK1 isoform 4 (beta-short) (natural protein, UniProt O15075-4 1-433, looked up)
chain: MLELIEVNGTPGSQLSTPRSGKSPSPSPTSPGSLRKQRSSQHGGSSTSLASTKVCSSMDENDGPGEEVSEEGFQIPATITERYKVGRTIGDGNFAVVKECVERSTAREYALKIIKKSKCRGKEHMIQNEVSILRRVKHPNIVLLIEEMDVPTELYLVMELVKGGDLFDAITSTNKYTERDASGMLYNLASAIKYLHSLNIVHRDIKPENLLVYEHQDGSKSLKLGDFGLATIVDGPLYTVCGTPTYVAPEIIAETGYGLKVDIWAAGVITYILLCGFPPFRGSGDDQEVLFDQILMGQVDFPSPYWDNVSDSAKELITMMLLVDVDQRFSAVQVLEHPWVNDDGLPENEHQLSVAGKIKKHFNTGPKPNSTAAGVSVIATTALDKERQVFRRRRNQDVRSRYKAQPAPPELNSESEDYSPSSSETVRSPNSPF
notes: For the library screen the protein was labelled with biotin (NHS-LC-biotin); source: E. coli BL21(DE3) pLPP with the pET19-DCLK1 isoform 4 plasmid, purified
Kd (plasma gelsolin): ~100 nM
